Test results taken from ChEMBL document CHEMBL4823315 (Bioorg Med Chem Lett, 2021).
Values after ≈ are worked out from the molar mass of the structure shown.

Experiments:
[1] = Clearance in Sprague-Dawley rat at 5 mg/kg, po or 5 mg/kg, iv; assay type: ADME, organism-based; details: in vivo
[2] = Half life in cynomolgus monkey at 0.5 mg/kg, po or 0.2 mg/kg, iv; assay type: ADME, organism-based, Macaca fascicularis; details: in vivo
[3] = Thermodynamic solubility of the compound at pH 1.2; assay type: physicochemical; details: buffer, read-out: Therm_solubility
[4] = AUC in cynomolgus monkey at 0.5 mg/kg, po; assay type: ADME, organism-based, Macaca fascicularis; design: dose 0.5 mg/kg; details: in vivo
[5] = Inhibition of p70S6K (unknown origin); design: species or system Homo sapiens
[6] = Toxicity in mouse xenografted with human MDA-MB-436 cells assessed as loss of body weight at 25 to 75 mg/kg, po administered qd measured for 28 days; assay type: organism-based; details: in vivo, 672 h, dose 25-75 mg/kg, time 28 day
[7] = Apparent permeability across apical to basal side in human Caco-2 cells; assay type: ADME, cell-based
[8] = Clearance in CD-1 mouse at 5 mg/kg, po or 5 mg/kg, iv; assay type: ADME, organism-based; details: in vivo
[9] = In vivo Inhibition of Akt/p70S6K in mouse xenografted with human MDA-MB-436 cells assessed as reduction in S6 phosphorylation in tumor at 25 to 200 mg/kg, po measured after 4 to 8 hrs; assay type: functional; details: dose 25-200 mg/kg, time 4-8 hrs
[10] = Oral bioavailability in cynomolgus monkey at 0.5 mg/kg; assay type: ADME, organism-based, Macaca fascicularis; details: in vivo
[11] = molecular target: Serine/threonine-protein kinase AKT (Homo sapiens, UniProt P31751+Q9Y243+P31749); test: Inhibition of Akt (unknown origin); assay type: protein assay
Cytochrome P450 2C19 = Cytochrome P450 2C19 (Homo sapiens, UniProt P33261); test: Inhibition of CYP2C19 (unknown origin); assay type: ADME
Cytochrome P450 2C19, sequence (P33261 whole entry): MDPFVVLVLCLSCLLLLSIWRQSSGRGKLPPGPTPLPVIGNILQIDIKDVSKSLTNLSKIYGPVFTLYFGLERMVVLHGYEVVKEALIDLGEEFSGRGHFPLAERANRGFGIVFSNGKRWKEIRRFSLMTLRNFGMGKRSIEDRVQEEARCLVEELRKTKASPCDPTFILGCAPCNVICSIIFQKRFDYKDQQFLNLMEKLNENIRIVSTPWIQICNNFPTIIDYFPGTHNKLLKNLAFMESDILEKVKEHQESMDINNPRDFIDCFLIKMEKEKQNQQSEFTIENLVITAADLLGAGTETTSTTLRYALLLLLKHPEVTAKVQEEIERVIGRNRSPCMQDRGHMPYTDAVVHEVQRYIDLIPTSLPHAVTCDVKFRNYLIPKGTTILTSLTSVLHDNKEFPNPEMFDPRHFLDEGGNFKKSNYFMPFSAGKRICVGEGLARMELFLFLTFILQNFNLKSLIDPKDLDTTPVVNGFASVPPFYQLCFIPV

[12] = Oral bioavailability in CD-1 mouse at 5 mg/kg; assay type: ADME, organism-based; details: in vivo
[13] = Intrinsic clearance in human liver microsomes; assay type: ADME, Microsome; details: read-out: CLH
[14] = molecular target: Voltage-gated inwardly rectifying potassium channel KCNH2 (Homo sapiens, UniProt Q12809); test: Inhibition of human ERG by patch clamp assay
Voltage-gated inwardly rectifying potassium channel KCNH2, sequence (Q12809 whole entry): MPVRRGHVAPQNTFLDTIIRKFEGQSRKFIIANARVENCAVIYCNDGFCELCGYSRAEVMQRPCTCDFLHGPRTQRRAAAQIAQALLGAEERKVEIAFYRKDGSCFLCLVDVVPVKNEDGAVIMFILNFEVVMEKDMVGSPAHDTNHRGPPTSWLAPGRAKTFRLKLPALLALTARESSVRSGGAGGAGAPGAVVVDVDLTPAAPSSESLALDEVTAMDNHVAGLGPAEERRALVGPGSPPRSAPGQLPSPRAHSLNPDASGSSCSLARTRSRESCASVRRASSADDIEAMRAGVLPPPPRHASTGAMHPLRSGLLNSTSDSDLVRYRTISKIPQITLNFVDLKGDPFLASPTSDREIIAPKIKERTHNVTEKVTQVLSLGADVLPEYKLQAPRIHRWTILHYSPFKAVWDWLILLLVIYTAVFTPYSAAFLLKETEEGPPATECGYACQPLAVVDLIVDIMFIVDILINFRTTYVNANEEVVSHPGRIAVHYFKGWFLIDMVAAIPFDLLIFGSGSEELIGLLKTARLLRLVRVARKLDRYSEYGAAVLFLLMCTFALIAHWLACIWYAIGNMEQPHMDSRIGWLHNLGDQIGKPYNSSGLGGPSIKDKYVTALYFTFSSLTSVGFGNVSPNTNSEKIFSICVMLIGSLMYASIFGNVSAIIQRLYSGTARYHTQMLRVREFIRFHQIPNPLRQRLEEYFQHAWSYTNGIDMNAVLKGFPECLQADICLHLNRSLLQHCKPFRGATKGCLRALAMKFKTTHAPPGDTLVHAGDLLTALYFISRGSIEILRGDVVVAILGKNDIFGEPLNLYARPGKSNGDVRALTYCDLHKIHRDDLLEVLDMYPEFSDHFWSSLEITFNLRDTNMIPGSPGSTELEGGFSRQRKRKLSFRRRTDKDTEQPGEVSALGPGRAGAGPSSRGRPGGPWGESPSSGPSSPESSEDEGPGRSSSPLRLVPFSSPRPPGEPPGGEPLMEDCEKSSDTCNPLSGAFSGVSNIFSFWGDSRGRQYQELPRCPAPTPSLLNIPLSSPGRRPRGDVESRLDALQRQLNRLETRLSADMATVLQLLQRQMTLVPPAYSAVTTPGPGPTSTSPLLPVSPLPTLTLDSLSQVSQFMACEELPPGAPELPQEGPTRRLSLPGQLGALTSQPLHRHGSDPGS

[15] = Clearance in Beagle dog at 0.5 mg/kg, po or 0.2 mg/kg, iv; assay type: ADME, organism-based, Canis lupus familiaris; details: in vivo
MDA-MB-436 [16] = test: Antitumor activity against human MDA-MB-436 cells xenografted in mouse assessed as tumor growth inhibition at 200 mg/kg, po qd and measured for 28 days; assay type: functional; details: MDA-MB-436, po, 672 h, time 28 day, read-out: TGI
[17] = Cmax in CD-1 mouse at 5 mg/kg, iv; assay type: ADME, organism-based; design: route intravenous, dose 5 mg/kg; details: in vivo
Cytochrome P450 3A4 = Cytochrome P450 3A4 (Homo sapiens, UniProt P08684); test: Inhibition of CYP3A4 (unknown origin); assay type: ADME
Cytochrome P450 3A4, sequence (P08684 whole entry): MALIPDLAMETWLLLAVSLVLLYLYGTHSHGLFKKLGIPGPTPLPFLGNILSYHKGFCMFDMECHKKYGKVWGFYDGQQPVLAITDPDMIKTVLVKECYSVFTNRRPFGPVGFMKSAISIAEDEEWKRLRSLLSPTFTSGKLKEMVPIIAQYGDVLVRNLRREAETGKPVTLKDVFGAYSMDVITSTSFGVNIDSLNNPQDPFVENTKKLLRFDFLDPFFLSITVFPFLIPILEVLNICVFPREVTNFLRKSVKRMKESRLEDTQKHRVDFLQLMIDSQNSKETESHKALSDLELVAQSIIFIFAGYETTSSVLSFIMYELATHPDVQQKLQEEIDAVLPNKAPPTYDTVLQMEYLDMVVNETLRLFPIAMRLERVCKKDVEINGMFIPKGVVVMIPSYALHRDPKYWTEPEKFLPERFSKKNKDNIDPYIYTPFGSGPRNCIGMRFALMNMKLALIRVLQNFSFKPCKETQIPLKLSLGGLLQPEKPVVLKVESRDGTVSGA

[18] = Clearance in cynomolgus monkey at 0.5 mg/kg, po or 0.2 mg/kg, iv; assay type: ADME, organism-based, Macaca fascicularis; details: in vivo
[19] = Toxicity in po dosed mouse xenografted with human MDA-MB-436 cells administered daily; assay type: organism-based; details: in vivo
[20] = AUC in Sprague-Dawley rat at 5 mg/kg, po; assay type: ADME, organism-based; design: dose 5 mg/kg; details: in vivo
MDA-MB-436 [21] = test: Antitumor activity against human MDA-MB-436 cells xenografted in mouse assessed as tumor growth inhibition at 75 mg/kg, po qd and measured for 28 days; assay type: functional; details: MDA-MB-436, po, 672 h, time 28 day, read-out: TGI
[22] = AUC in CD-1 mouse at 5 mg/kg, iv; assay type: ADME, organism-based; design: dose 5 mg/kg; details: in vivo
Cytochrome P450 2D6 = Cytochrome P450 2D6 (Homo sapiens, UniProt P10635); test: Inhibition of CYP2D6 (unknown origin); assay type: ADME
Cytochrome P450 2D6, sequence (P10635 whole entry): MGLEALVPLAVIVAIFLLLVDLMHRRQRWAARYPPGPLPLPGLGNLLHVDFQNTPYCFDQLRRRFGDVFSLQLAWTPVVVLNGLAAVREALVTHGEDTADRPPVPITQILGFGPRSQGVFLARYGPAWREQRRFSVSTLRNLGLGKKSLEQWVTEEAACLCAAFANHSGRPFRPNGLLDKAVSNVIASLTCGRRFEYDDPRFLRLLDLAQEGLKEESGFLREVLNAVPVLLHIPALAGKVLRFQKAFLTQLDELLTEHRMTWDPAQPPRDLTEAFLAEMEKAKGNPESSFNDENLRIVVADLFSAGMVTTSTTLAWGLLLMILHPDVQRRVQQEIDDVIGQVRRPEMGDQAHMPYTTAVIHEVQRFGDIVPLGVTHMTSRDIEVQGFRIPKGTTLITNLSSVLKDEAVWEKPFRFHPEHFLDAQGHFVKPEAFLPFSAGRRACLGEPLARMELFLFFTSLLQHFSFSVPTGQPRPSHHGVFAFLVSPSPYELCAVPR

[23] = Efflux ratio of apparent permeability in human Caco-2 cells; assay type: ADME, cell-based
[24] = Half life in Beagle dog at 0.5 mg/kg, po or 0.2 mg/kg, iv; assay type: ADME, organism-based, Canis lupus familiaris; details: in vivo
MDA-MB-436 [25] = test: Antitumor activity against human MDA-MB-436 cells xenografted in mouse assessed as tumor growth inhibition at 25 mg/kg, po qd and measured for 28 days; assay type: functional; details: MDA-MB-436, po, 672 h, time 28 day, read-out: TGI
[26] = Oral bioavailability in Beagle dog at 0.5 mg/kg; assay type: ADME, organism-based, Canis lupus familiaris; details: in vivo
[27] = In vivo Inhibition of Akt/p70S6K in mouse xenografted with human MDA-MB-436 cells assessed as reduction in S6 phosphorylation in tumor at 200 mg/kg, po measured after 24 hrs; assay type: functional; details: MDA-MB-436, po
Cytochrome P450 2B6 = molecular target: T1, Cytochrome P450 2B6 (Homo sapiens, UniProt P20813); test: Inhibition of CYP2B6 (unknown origin); assay type: ADME
T1 sequence (P20813 whole entry): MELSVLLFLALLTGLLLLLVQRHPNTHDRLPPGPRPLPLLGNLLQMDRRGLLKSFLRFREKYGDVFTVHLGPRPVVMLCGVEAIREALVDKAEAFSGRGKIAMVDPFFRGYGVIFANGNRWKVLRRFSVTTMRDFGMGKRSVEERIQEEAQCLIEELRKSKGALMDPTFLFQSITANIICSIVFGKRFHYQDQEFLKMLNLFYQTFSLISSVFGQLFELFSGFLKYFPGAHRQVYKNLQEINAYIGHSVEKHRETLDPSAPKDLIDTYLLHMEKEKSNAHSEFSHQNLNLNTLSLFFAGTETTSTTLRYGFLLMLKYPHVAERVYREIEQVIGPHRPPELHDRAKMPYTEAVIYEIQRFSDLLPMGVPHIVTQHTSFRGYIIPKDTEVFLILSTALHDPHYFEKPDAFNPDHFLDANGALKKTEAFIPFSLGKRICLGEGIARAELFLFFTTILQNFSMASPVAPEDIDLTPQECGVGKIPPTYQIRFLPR

[28] = Toxicity in mouse xenografted with human MDA-MB-436 cells assessed as loss of body weight at 200 mg/kg, po administered qd measured after 15 days; assay type: organism-based; details: in vivo, 360 h, time 15 day
[29] = Cmax in Beagle dog at 0.5 mg/kg, po; assay type: ADME, organism-based, Canis lupus familiaris; design: route oral, dose 0.5 mg/kg; details: in vivo
[30] = Half life in CD-1 mouse at 5 mg/kg, po or 5 mg/kg, iv; assay type: ADME, organism-based; details: in vivo
[31] = Cmax in CD-1 mouse at 5 mg/kg, po; assay type: ADME, organism-based; design: route oral, dose 5 mg/kg; details: in vivo
[32] = Thermodynamic solubility of the compound at pH 7.4; assay type: physicochemical; details: buffer, read-out: Therm_solubility
[33] = Protein binding in mouse plasma assessed as unbound fraction; assay type: ADME, cell-free
[34] = Oral bioavailability in Sprague-Dawley rat at 5 mg/kg; assay type: ADME, organism-based; details: in vivo
[35] = Cmax in cynomolgus monkey at 0.5 mg/kg, po; assay type: ADME, organism-based, Macaca fascicularis; design: route oral, dose 0.5 mg/kg; details: in vivo
[36] = In vivo Inhibition of Akt/p70S6K in mouse xenografted with human MDA-MB-436 cells assessed as reduction in S6 phosphorylation in tumor at 75 mg/kg, po measured after 24 hrs; assay type: functional; details: MDA-MB-436, po
[37] = Volume of distribution in CD-1 mouse at 5 mg/kg, po or 5 […], iv; assay type: ADME, organism-based; details: in vivo
[38] = AUC in CD-1 mouse at 5 mg/kg, po; assay type: ADME, organism-based; design: dose 5 mg/kg; details: in vivo
[39] = Intrinsic clearance in mouse liver microsomes; assay type: ADME, Microsome; details: read-out: CLH
Cytochrome P450 2C9 = Cytochrome P450 2C9 (Homo sapiens, UniProt P11712); test: Inhibition of CYP2C9 (unknown origin); assay type: ADME
Cytochrome P450 2C9, sequence (P11712 whole entry): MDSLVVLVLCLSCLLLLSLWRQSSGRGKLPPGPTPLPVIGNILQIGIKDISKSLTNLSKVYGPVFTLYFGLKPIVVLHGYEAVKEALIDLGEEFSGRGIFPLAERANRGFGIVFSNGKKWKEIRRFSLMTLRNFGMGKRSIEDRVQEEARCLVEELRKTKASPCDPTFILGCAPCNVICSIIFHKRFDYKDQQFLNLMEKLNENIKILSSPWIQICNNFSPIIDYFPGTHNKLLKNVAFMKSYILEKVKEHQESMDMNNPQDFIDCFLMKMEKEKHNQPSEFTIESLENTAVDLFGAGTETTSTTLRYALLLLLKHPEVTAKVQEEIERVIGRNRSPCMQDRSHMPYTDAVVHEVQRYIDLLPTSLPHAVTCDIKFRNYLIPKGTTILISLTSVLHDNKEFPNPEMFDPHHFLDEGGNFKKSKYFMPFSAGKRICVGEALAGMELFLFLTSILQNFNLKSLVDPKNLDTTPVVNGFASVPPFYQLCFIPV

[40] = Cmax in Sprague-Dawley rat at 5 mg/kg, po; assay type: ADME, organism-based; design: route oral, dose 5 mg/kg; details: in vivo
[41] = AUC in Beagle dog at 0.5 mg/kg, po; assay type: ADME, organism-based, Canis lupus familiaris; design: dose 0.5 mg/kg; details: in vivo

Work on `NC(=O)c1c(N)ncnc1N1CCC(c2nc(-c3ccc(F)c(C(F)(F)F)c3)cn2CCN2CCC2)CC1` yielded a clearance [1] of 18.7 L/h/kg, a half-life [2] of 4 h and a solubility thermodynamic [3] of 2.96 mg/mL (≈ 5560 µM). For the same molecule, the AUC [4] was 0.082 µg·h/mL, the IC50 [5] was 0.003 µM and the Activity [6] was < 5%. The Papp A→B [7] was 53 nm/s, the clearance [8] was 1.5 L/h/kg and the “inhibition (INH)” value [9] was >95%. For the same molecule, the bioavailability [10] was 23%, the IC50 [11] was 0.016 µM and the IC50 (Cytochrome P450 2C19) was > 20 µM. The bioavailability [12] was 63%, the microsomal CLint [13] was 46 µL/min/mg and the IC50 [14] was 17.4 µM. For the same molecule, the clearance [15] was 0.28 L/h/kg, the inhibition in vivo at 200 mg/kg (MDA-MB-436 [16]) was 98% and the Cmax [17] was 0.163 µg/mL. For the same molecule, the IC50 (Cytochrome P450 3A4) was > 20 µM, the clearance [18] was 2.57 L/h/kg and the MTD [19] was ≤ 200 mg/kg. The AUC [20] was 0.0434 µg·h/mL, the inhibition in vivo at 75 mg/kg (MDA-MB-436 [21]) was 100% and the AUC [22] was 0.662 µg·h/mL. For the same molecule, the IC50 (Cytochrome P450 2D6) was > 20 µM, the efflux ratio [23] was 7.9 and the half-life [24] was 19 h. For the same molecule, the inhibition in vivo at 25 mg/kg (MDA-MB-436 [25]) was 81%, the bioavailability [26] was 65% and the inhibition in vivo at 200 mg/kg [27] was 92%. For the same molecule, the IC50 (Cytochrome P450 2B6) was > 20 µM, the Activity [28] was > 5% and the Cmax [29] was 0.0678 µg/mL. The half-life [30] was 9.3 h, the Cmax [31] was 0.057 µg/mL and the solubility thermodynamic [32] was 0.004 mg/mL (≈ 7.51 µM). The fraction unbound [33] was 0.21, the bioavailability [34] was 17% and the Cmax [35] was 0.0097 µg/mL. It also gave an inhibition in vivo at 75 mg/kg [36] of 87%, a Vd [37] of 19.3 L/kg and an AUC [38] of 0.417 µg·h/mL. The microsomal CLint [39] was 11 µL/min/mg, the IC50 (Cytochrome P450 2C9) was > 20 µM and the Cmax [40] was 0.013 µg/mL. It also gave an AUC [41] of 2.37 µg·h/mL.
